No end group written: not given here.
Assays:
UTR2 = UTR2 (Homo sapiens, UniProt Q9UKP6); experiment: PathHunter β-arrestin assay; assay type: cell-based; details: follow-up assays, control antagonist
HTR1A = target: T1, HTR1A (Homo sapiens, UniProt P08908); experiment: PathHunter β-arrestin assay; assay type: cell-based; details: screen, control agonist; CHO, 37C, 2HR
T1 construct: purchased Eurofins DiscoverX (PathHunter gpcrMAX)

HTR1B = target: T2, HTR1B (Homo sapiens, UniProt P28222); experiment: PathHunter β-arrestin assay; assay type: cell-based; details: screen, control agonist; U20S, 37C, 2HR
T2 construct: purchased Eurofins DiscoverX (PathHunter gpcrMAX)
T2 sequence (P28222 whole entry): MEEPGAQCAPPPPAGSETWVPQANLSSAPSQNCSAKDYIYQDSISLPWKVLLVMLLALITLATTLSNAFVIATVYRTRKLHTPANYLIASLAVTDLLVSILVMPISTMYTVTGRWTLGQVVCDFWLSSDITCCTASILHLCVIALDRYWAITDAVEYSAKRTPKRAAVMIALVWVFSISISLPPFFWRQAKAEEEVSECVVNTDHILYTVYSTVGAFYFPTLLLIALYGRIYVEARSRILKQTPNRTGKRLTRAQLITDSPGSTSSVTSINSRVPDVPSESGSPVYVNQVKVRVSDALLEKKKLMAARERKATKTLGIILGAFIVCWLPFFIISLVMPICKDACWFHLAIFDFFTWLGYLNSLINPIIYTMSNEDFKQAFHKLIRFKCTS

HTR1E = target: T3, HTR1E (Homo sapiens, UniProt P28566); experiment: PathHunter β-arrestin assay; assay type: cell-based; details: screen, control agonist; U20S, 37C, 2HR
T3 construct: purchased Eurofins DiscoverX (PathHunter gpcrMAX)
T3 sequence (P28566 whole entry): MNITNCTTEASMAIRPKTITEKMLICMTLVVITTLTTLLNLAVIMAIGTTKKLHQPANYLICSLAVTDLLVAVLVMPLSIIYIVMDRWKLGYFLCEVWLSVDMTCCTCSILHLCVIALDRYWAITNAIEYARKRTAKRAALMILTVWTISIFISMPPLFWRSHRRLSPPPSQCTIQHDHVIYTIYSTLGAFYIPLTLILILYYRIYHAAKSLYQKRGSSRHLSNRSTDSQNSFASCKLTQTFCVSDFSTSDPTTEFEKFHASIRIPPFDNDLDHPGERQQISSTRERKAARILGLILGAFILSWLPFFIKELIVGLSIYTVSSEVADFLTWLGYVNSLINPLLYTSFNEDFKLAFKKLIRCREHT

HTR1F = target: T4, HTR1F (Homo sapiens, UniProt P30939); experiment: PathHunter β-arrestin assay; assay type: cell-based; details: screen, control agonist; U20S, 37C, 2HR
T4 construct: purchased Eurofins DiscoverX (PathHunter gpcrMAX)
T4 sequence (P30939 whole entry): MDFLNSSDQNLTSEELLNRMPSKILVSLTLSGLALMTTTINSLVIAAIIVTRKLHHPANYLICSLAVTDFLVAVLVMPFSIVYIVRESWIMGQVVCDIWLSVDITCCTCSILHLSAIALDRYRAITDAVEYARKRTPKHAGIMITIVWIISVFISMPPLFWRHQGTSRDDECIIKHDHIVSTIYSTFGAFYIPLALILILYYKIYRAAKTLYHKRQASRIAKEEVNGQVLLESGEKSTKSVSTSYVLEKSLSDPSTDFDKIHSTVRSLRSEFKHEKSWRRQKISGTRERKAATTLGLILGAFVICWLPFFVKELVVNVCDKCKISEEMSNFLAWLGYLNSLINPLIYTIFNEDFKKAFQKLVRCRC

HTR2A = target: T5, HTR2A (Homo sapiens, UniProt P28223); experiment: PathHunter β-arrestin assay; assay type: cell-based; details: screen, control agonist; U20S, 37C, 2HR
T5 construct: purchased Eurofins DiscoverX (PathHunter gpcrMAX)
T5 sequence (P28223 whole entry, looked up): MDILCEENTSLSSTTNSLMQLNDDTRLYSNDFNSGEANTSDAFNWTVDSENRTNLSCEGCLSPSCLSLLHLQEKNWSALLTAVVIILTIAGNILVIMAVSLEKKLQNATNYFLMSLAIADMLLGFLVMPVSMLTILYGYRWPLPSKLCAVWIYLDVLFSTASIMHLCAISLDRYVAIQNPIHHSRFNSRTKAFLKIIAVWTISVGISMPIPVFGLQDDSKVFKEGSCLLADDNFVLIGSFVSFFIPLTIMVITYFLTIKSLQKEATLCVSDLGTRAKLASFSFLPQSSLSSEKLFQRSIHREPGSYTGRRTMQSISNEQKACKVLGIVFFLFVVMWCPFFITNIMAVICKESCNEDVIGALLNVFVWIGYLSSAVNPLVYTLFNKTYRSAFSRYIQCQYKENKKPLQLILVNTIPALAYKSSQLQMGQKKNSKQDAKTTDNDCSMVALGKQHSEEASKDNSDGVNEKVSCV

HTR5A = target: T6, HTR5A (Homo sapiens, UniProt P47898); experiment: PathHunter β-arrestin assay; assay type: cell-based; details: screen, control agonist; U20S, 37C, 2HR
T6 construct: purchased Eurofins DiscoverX (PathHunter gpcrMAX)
T6 sequence (P47898 whole entry): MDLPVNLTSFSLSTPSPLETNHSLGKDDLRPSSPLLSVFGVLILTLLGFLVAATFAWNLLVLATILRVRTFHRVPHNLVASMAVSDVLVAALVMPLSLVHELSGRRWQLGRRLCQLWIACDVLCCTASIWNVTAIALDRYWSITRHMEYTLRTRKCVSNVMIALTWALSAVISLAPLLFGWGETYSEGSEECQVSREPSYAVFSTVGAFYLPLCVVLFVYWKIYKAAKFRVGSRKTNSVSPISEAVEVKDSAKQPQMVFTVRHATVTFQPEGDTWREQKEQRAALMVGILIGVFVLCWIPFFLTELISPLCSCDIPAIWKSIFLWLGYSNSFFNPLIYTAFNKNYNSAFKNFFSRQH

MCHR2 = target: T7, MCHR2 (Homo sapiens, UniProt Q969V1); experiment: PathHunter β-arrestin assay; assay type: cell-based; details: screen, control agonist; U2OS, 37C, 2HR
T7 construct: purchased Eurofins DiscoverX (PathHunter gpcrMAX)
T7 sequence (Q969V1 whole entry): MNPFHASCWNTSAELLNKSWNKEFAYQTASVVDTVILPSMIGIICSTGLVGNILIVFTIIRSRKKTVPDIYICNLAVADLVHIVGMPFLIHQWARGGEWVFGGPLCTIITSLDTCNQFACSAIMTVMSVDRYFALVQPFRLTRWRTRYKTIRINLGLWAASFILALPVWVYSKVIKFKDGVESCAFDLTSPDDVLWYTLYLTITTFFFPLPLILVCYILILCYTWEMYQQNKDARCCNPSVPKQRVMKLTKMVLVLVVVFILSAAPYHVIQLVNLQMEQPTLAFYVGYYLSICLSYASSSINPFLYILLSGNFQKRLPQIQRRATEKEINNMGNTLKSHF

GLP2R = target: T8, GLP2R (Homo sapiens, UniProt O95838); experiment: PathHunter β-arrestin assay; assay type: cell-based; details: control agonist
T8 sequence (O95838 1-553): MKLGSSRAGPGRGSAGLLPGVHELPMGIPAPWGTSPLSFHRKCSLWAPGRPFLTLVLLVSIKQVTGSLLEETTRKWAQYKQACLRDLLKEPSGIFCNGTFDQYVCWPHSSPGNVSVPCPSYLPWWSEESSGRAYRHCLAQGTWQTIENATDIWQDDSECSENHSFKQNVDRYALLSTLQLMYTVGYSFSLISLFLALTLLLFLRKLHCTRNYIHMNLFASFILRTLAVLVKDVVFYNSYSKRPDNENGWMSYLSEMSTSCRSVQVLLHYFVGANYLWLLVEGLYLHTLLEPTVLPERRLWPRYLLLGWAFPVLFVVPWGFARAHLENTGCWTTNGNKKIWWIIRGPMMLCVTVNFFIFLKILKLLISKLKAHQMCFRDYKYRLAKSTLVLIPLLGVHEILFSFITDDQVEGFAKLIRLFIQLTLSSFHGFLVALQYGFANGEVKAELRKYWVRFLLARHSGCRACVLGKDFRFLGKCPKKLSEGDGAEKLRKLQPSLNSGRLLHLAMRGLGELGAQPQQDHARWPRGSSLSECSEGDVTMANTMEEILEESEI
Protocol: (§1) Follow up experiments were prioritized based on the difference between S/N and CoV. Targets with a >5-fold difference between S/N and CoV were investigated for their potential contribution to the AMB-FUBINACA toxidrome with 10-point concentration-response curves generated in technical replicate (range 1.5–30 μM) using the EC80 of the relevant agonist, where applicable in antagonist mode. Simultaneous agonist and antagonist curves were run in parallel to ensure reliability of the assay (see Supplementary Table 2), with both RC50 and signal to background aligning with historical averages, and Z' >0.5. RC50 was estimated using a four-parameter fit (CBIS Data Analysis Suite, ChemInnovation, San Diego, CA) on normalized data.

CB1 = system: CB1; parameters: method as in PMID 20599795; details: 10 nM, 15 min application; not recovered up to 5 h later; cited from earlier work
ADORA3 = target: T9, ADORA3 (Homo sapiens, UniProt P0DMS8); experiment: PathHunter β-arrestin assay; assay type: cell-based; details: follow-up assays, control antagonist
T9 construct: host or cells: CHO
T9 sequence (P0DMS8 whole entry): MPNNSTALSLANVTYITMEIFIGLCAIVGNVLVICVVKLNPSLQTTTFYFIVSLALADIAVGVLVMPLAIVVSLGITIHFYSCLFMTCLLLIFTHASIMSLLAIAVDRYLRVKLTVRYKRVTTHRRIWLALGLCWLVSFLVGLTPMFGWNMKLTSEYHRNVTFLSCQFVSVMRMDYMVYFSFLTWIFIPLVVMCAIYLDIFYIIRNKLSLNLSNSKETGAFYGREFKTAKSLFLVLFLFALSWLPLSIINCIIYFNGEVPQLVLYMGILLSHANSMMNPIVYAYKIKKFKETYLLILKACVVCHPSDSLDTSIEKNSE

NPFFR1 = target: T10, NPFFR1 (Homo sapiens, UniProt Q9GZQ6); experiment: PathHunter β-arrestin assay; assay type: cell-based; details: screen, control agonist; CHO, 37C, 2HR
T10 construct: purchased Eurofins DiscoverX (PathHunter gpcrMAX)
T10 sequence (Q9GZQ6 whole entry): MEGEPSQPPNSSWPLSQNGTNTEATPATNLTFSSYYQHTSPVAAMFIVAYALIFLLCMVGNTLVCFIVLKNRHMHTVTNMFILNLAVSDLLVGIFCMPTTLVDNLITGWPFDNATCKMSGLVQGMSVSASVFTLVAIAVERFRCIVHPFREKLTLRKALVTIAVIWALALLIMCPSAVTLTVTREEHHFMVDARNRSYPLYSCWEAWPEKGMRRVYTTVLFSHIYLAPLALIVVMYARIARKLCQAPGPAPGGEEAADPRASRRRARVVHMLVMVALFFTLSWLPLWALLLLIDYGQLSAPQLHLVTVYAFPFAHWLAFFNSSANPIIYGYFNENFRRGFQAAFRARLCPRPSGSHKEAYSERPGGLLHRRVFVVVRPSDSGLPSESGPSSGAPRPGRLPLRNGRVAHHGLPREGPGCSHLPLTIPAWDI

HCRTR1 = target: T11, HCRTR1 (Homo sapiens, UniProt O43613); experiment: PathHunter β-arrestin assay; assay type: cell-based; details: follow-up assays, control antagonist
T11 sequence (O43613 1-425): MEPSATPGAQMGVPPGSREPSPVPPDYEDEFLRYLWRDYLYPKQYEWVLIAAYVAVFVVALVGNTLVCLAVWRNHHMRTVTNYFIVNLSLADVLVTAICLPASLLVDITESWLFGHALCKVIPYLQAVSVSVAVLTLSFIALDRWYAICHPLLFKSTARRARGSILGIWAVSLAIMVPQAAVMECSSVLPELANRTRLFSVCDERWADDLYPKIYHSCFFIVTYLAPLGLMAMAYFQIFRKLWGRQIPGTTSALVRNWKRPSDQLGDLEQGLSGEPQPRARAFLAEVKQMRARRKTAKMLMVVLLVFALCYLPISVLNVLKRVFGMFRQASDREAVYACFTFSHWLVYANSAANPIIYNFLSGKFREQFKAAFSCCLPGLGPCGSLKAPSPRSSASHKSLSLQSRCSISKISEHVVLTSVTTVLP
Protocol: as §1

HCRTR2 = HCRTR2 (Homo sapiens, UniProt O43614); experiment: PathHunter β-arrestin assay; assay type: cell-based; details: follow-up assays, control antagonist
Sequence of HCRTR2 (O43614 whole entry): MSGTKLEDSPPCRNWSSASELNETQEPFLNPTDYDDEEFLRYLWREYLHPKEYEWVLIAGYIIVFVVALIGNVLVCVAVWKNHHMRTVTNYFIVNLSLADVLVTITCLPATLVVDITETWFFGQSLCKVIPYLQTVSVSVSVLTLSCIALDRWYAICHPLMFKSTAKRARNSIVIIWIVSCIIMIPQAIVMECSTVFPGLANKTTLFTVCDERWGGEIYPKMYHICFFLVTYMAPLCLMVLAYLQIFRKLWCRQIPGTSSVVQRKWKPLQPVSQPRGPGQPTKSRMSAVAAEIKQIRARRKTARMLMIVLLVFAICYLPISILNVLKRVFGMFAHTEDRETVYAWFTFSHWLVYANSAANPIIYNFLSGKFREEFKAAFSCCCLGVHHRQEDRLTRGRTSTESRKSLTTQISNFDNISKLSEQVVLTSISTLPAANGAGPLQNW

MRGPRX2 = target: T12, MRGPRX2 (Homo sapiens, UniProt Q96LB1); experiment: PathHunter β-arrestin assay; assay type: cell-based; details: control agonist
T12 sequence (Q96LB1 1-330): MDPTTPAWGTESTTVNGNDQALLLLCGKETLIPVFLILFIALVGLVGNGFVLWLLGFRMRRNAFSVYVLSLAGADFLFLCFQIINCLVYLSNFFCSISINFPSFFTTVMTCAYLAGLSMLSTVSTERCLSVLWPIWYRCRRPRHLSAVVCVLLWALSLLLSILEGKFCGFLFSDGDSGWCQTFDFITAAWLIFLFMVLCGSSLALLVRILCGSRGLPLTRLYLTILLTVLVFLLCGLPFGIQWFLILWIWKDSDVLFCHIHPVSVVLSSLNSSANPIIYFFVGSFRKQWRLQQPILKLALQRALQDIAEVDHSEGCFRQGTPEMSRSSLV
Protocol: as §1

[1] = follow-up concentration-response assays

Sequence of UTR2 (Q9UKP6 whole entry): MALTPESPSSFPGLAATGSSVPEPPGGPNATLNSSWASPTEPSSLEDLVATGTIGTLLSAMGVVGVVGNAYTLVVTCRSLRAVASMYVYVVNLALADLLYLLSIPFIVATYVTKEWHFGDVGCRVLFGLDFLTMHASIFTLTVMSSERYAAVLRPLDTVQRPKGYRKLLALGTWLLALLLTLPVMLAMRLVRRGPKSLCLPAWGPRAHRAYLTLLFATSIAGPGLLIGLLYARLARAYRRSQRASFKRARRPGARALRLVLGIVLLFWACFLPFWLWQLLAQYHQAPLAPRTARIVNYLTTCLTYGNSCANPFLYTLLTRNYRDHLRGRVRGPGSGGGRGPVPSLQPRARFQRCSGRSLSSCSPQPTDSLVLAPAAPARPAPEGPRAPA
T1 sequence (P08908 whole entry): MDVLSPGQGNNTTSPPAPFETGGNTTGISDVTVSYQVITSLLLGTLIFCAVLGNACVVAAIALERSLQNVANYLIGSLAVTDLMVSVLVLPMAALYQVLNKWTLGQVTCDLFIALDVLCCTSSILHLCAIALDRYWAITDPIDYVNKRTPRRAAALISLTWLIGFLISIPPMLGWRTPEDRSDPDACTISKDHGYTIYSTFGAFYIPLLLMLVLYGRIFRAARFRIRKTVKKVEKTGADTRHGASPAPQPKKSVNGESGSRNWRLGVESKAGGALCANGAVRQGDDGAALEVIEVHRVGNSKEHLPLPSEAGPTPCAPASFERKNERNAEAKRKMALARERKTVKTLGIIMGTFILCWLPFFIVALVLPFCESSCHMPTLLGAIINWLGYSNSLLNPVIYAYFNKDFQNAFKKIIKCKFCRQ

COc1cc(Br)c(S(=O)(=O)Nc2ccc(Cl)c(O[C@@H]3CCN(C)C3)c2)cc1OC [SB 657510]
IC50 (UTR2): 122 nM

NCCc1c[nH]c2ccc(O)cc12 [Serotonin / 5-HT, Serotonin]
EC80 (HTR1A): 377 nM
EC80 (HTR1B): 173 nM
EC80 (HTR1E): 21.6 nM
EC80 (HTR1F): 127 nM
EC80 (HTR2A): 171 nM
EC80 (HTR5A): 26.4 nM

MCH: control agonist for MCHR1 and MCHR2
EC80 (MCHR2): 59.3 nM

GLP II (1-33)
EC80 (GLP2R; [1]): 2.96 nM
EC80 (GLP2R; screen, CHO, 37C, 2HR): 8.88 nM

CCCCCCC(C)(C)c1cc(O)c2c(c1)OC(C)(C)[C@@H]1CC=C(CO)C[C@@H]21 [HU210]
CB1 internalization (CB1): near maximal internalization

COc1ccccc1NC(=O)Nc1nc(-c2cccnc2)nc2ccccc12 [VUF 5574]
IC50 (ADORA3): 3.73 nM

RFRP-3
EC80 (NPFFR1): 148 nM

Cc1cc(NC(=O)Nc2ccc(N(C)C)cc2)c2cc(F)cc(F)c2n1 [SB 408124]
IC50 (HCRTR1): 74.4 nM
IC50 (HCRTR2): 11500 nM

Cortistatin 14 (PCKNFFWKTFSSCK; ends and bridges not checked; cysteine pairing not given here; UniProt Q62949 99-112, looked up) [control agonist]
EC80 (MRGPRX2; [1]): 737.5 nM
EC80 (MRGPRX2; screen, CHO, 37C, 2HR): 738 nM
